# Assay results as given in patent US4920117A, “4,5,5a,6-tetrahydro-3H-isoxazolo(5,4,3-kl)acridines, pharmaceutical compositions and use” (Hoechst-Roussel Pharmaceuticals Inc., priority 1989, dated 1990).
# Assays:
# [1] = test system: 2-phenyl-1,4-benzoquinone-induced writhing in mice; assay: 2-phenyl-1,4-benzoquinone-induced writhing test in mice (analgesia); assay type: in vivo
# Text: The compounds of Formula I of the present invention are useful as analgesic agents due to their ability to alleviate pain in mammals. […] Exptl. Biol. Med., 95, 729 (1957)].
# [2] = molecular target: acetylcholinesterase (Homo sapiens, UniProt P22303); assay: Cholinesterase inhibition assay (photometric method of Ellman et al.); assay type: biochemical; settings: read-out: Cholinesterase Inhibition IC50 (molar conc.)
# Sequence of acetylcholinesterase (P22303 32-614): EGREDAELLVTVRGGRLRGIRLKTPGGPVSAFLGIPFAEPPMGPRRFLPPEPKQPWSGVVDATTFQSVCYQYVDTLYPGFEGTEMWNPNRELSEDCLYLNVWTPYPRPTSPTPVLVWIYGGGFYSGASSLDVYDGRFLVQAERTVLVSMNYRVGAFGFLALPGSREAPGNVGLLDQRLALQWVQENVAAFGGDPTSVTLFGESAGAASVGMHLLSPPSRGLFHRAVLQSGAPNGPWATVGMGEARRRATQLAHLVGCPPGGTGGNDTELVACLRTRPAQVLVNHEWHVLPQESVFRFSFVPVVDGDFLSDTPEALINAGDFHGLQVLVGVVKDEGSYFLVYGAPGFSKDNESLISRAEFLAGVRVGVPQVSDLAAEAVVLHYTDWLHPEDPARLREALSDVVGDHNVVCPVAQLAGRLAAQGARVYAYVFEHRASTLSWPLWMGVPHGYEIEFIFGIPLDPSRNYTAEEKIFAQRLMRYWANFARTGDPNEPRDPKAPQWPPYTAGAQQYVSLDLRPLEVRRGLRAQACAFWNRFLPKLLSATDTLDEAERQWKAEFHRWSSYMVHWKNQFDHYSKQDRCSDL
# [3] = test system: scopolamine induced memory deficit in mice; assay: Dark Avoidance Assay (reversal of scopolamine induced memory deficit); assay type: in vivo; settings: retest after 24 hours
# Method: This utility can also be ascertained by determining the ability of these compounds to restore cholinergically deficient memory in the Dark Avoidance Assay. In this assay mice are tested for their ability to remember an unpleasant stimulus for a period of 24 hours. A mouse is placed in a chamber that contains a dark compartment; a strong incadescent light drives it to the dark compartment, where an electric shock is administered through metal plates on the floor. The animal is removed from the testing apparatus and tested again, 24 hours later, for the ability to remember the electric shock.
# If scopolamine, an anticholinergic that is known to cause memory impairment, is administered before an animal's initial exposure to the test chamber, the animal re-enters the dark compartment shortly after being placed in the test chamber 24 hours later. This effect of scopolamine is blocked by an active test compound, resulting in a greater interval before re-entry into the dark compartment.
# The results for an active compound are expressed as the percent of a group of animals in which the effect of scopolamine is blocked, as manifested by an increased interval between being placed in the test chamber and re-entering the dark compartment.
structure (smiles),measurement,setting,value
"CCC(=O)O[C@](Cc1ccccc1)(c1ccccc1)[C@H](C)CN(C)C [Propoxyphene, reference compound]",Analgesic PQW % Inhibition of Writhing,"[1]; 3.9 mg/kg, s.c., reference compound",50%
"O=C(NCC#CCN1CCCC1)N1c2ccccc2-c2noc3c2C1CCC3 (stereo not shown) [N-[4-(1-Pyrrolidinyl)-2-butyn-1-yl]-4,5,5a,6-tetrahydro-3H-isoxazolo[5,4,3-kl]acridine-6-carboxamide]","Analgesic PQW % Inhibition of Writhing at 20 mg/kg., S.C.",[1],33%
"c1ccc2c(c1)NC1CCCc3onc-2c31 (stereo not shown) [4,5,5a,6-Tetrahydro-3H-isoxazolo[5,4,3-kl]acridine]",IC50,[2],13 µM
"CCNC(=O)N1c2ccccc2-c2noc3c2C1CCC3 (stereo not shown) [6-Ethylaminocarbonyl-4,5,5a,6-tetrahydro-3H-isoxazolo[5,4,3-kl]acridine]","Analgesic PQW % Inhibition of Writhing at 20 mg/kg., S.C.",[1],44%
"C=CCN1c2ccccc2-c2noc3c2C1CCC3 (stereo not shown) [6-(2-Propenyl)-4,5,5a,6-tetrahydro-3H-isoxazolo[5,4,3-kl]acridine]",% of animals with scopolamine induced memory deficit reversal,[3]; 1.25 mg/kg body weight,27%
"CNC(=O)Oc1ccc2c(c1)[C@]1(C)CCN(C)[C@@H]1N2C [Physostigmine, reference compound]",% of animals with scopolamine induced memory deficit reversal,"[3]; 0.31 mg/kg body weight, reference",20%
"O=C(NCCN1CCOCC1)N1c2ccccc2-c2noc3c2C1CCC3 (stereo not shown) [N-[2-(4-Morpholinyl)ethyl]-4,5,5a,6-tetrahydro-3H-isoxazolo[5,4,3-kl]acridine-6-carboxamide]","Analgesic PQW % Inhibition of Writhing at 20 mg/kg., S.C.",[1],52%
"c1ccc2c(c1)nc1c3c(onc32)CCC1 [4,5-Dihydro-3H-isoxazolo[5,4,3-kl]acridine]",% of animals with scopolamine induced memory deficit reversal,[3]; 0.63 mg/kg body weight,20%
same,IC50,[2],3.9 µM
"C#CCNC(=O)N1c2ccccc2-c2noc3c2C1CCC3 (stereo not shown) [N-(2-Propynyl)-4,5,5a,6-tetrahydro-3H-isoxazolo-[5,4,3-kl]acridine-6-carboxamide]","Analgesic PQW % Inhibition of Writhing at 20 mg/kg., S.C.",[1],29%
